# Structures can show the parent of a compound that is named as a salt. Where two headings read alike, the source gives them in different places.
# Legend:
# HRT-18 cells = assay: Cell viability assay (MTT) in HRT-18 cells
# rHCoVs-OC43 = assay: organism not typed; type: cell-based; conditions: for EC50: drug alone, HRT-18 cells, MOI 0.025, 48 h treatment, decrease of Rluc, read-out: EC50; for IC50: drug 2 alone (fast synergy screening table), read-out: IC50
# [1] = Cell viability assay (MTT) in HRT-18 cells; conditions: human, CC50 (μM)
# [2] = Cell viability assay (MTT) in Huh7.5 cells; type: cell-based, human; conditions: human, Huh7.5 cells, Huh7.5 (B), read-out: SARS-CoV-2 CC50
# Method: (§1) Cell viability was monitored by a mitochondrial activity test using methyl-thiazolyl-tetrazolium (MTT, Sigma). After 48 hours of drug treatment, cells were treated with 1 mg/ml of MTT during 3 hours at 37° C. The supernatants were removed and the MTT crystals were dissolved using DMSO and a shaker. The absorbance was read with a Tecan Spark at 570 nm with reference at 650 nm.
# (§2) Only the most promising molecules or those studied in synergy were tested in Calu3 cells.
# SARS-CoV-2 [3] = assay: microbe, parasite or virus in culture; type: cell-based; conditions: read-out: SARS-CoV-2 EC50
# SARS-CoV-2 [4] = conditions: reports from in vitro studies (ref. 16); cited from earlier work
# Covid-19 = conditions: adults hospitalized with Covid-19 (ref. 17); cited from earlier work
# Calu3 cells = assay: Cell viability assay (MTT) in Calu3 cells; type: cell-based, Human; conditions: Calu3 (C), read-out: SARS-CoV-2 CC50
# Method: as §1, §2
# Huh7.5 cells = assay: Cell viability assay (MTT) in Huh7.5 cells; type: cell-based, human; conditions: Huh7.5 (B), read-out: SARS-CoV-2 CC50
# Method: as §1, §2
# SARS-CoV-2 [5] = assay: Drug tests in SARS-CoV-2 model, Calu3 cells, viral titration by plaque assay in Vero E6; conditions: read-out: SARS-CoV-2 EC50; Calu3 (C), MOI 0.05, 48 h treatment
# [6] = Cell viability assay (MTT) in Calu3 cells; type: cell-based, Human; conditions: human, Calu3 cells, Calu3 (C), read-out: SARS-CoV-2 CC50
# Method: as §1, §2
# [7] = drug alone, HRT-18 cells, 48 h treatment, MTT
# [8] = drug 2 alone (fast synergy screening table)
# [9] = Severe acute respiratory syndrome coronavirus 2, Huh7.5, 48 h
SMILES,EC50 (rHCoVs-OC43),"CC50 at 48 h [1, 8]","CC50 at 48 h [1, 7]",IC50 (rHCoVs-OC43; 48 h),IC50 (rHCoVs-OC43),also measured
CCCC(=O)O[C@]1(C(=O)CCl)[C@H](C)C[C@@H]2[C@@H]3CCC4=CC(=O)C=C[C@]4(C)[C@]3(F)C(=O)C[C@@]21C [Clobetasone butyrate],8.5 µM,,,,,CC50 (HRT-18 cells; [7]): > 10 µM
C#C[C@]1(O)CC[C@H]2[C@@H]3CCC4=Cc5oncc5C[C@]4(C)[C@H]3CC[C@@]21C [Danazol],1 µM,> 10 µM,> 10 µM,1 µM,1 µM,CC50 at 48 h [2]: > 10 µM; EC50 (SARS-CoV-2 [3]; [9]): 0.83 µM
CCCCCCCCCC(=O)OC1(c2ccc(Cl)cc2)CCN(CCCC(=O)c2ccc(F)cc2)CC1 [Haloperidol decanoate],> 10 µM,,> 10 µM,,,
Cc1cccc(C)c1OCC(=O)N[C@@H](Cc1ccccc1)[C@@H](O)C[C@H](Cc1ccccc1)NC(=O)[C@H](C(C)C)N1CCCNC1=O [Lopinavir],,,,,,EC50 (SARS-CoV-2 [4]): 26 µM; clinical benefit (Covid-19): no benefit was observed
COC(=O)C1=C(C)NC(C)=C(C(=O)OCCN2CCN(C(c3ccccc3)c3ccccc3)CC2)C1c1cccc([N+](=O)[O-])c1 (centres unmarked) [Manidipine dihydrochloride],4.5 µM,> 10 µM,> 10 µM,4.5 µM,4.5 µM,
CC(C)C(=O)OC[C@H]1O[C@@H](n2cc/c(=N\O)[nH]c2=O)[C@H](O)[C@@H]1O [Molnupinavir],,,,,,CC50 (Calu3 cells): > 10 µM; CC50 (Huh7.5 cells): > 10 µM; EC50 (SARS-CoV-2 [3]): 0.084 µM; EC50 (SARS-CoV-2 [5]): 0.035 µM
COc1c(C)c2c(c(O)c1C/C=C(\C)CCC(=O)OCCN1CCOCC1)C(=O)OC2 [Mycophenolate mofetil],0.18 µM,,,,0.18 µM,CC50 (HRT-18 cells; [8]): > 10 µM; CC50 (HRT-18 cells; [7]): > 10 µM; CC50 (Huh7.5 cells): 9.1 µM; EC50 (SARS-CoV-2 [3]): 1.18 µM
Cc1c(O)cccc1C(=O)N[C@@H](CSc1ccccc1)[C@H](O)CN1C[C@H]2CCCC[C@H]2C[C@H]1C(=O)NC(C)(C)C [Nelfinavir mesylate],2.6 µM,> 10 µM,> 10 µM,2.6 µM,2.6 µM,CC50 at 48 h [6]: > 10 µM; CC50 at 48 h [2]: > 10 µM; EC50 (SARS-CoV-2 [3]; [9]): 1.7 µM; EC50 (SARS-CoV-2 [5]): 0.11 µM
COC(=O)C1=C(C)NC(C)=C(C(=O)OCC(C)C)C1c1ccccc1[N+](=O)[O-] (centres unmarked) [Nisoldipine],2.35 µM,,> 10 µM,,,
CC(=O)Oc1ccccc1C(=O)Nc1ncc([N+](=O)[O-])s1 [Nitazoxanide],1.33 µM,> 10 µM,> 10 µM,1.33 µM,,CC50 at 48 h [2]: > 10 µM; EC50 (SARS-CoV-2 [3]; [9]): 0.54 µM
CCCCCCCCCCC[C@@H](C[C@@H]1OC(=O)[C@H]1CCCCCC)OC(=O)[C@H](CC(C)C)NC=O [Orlistat],7.3 µM,,> 10 µM,,,
C[C@@H]1O[C@@H](O[C@H]2C[C@@H](O)[C@]3(CO)[C@H]4[C@H](O)C[C@]5(C)[C@@H](C6=CC(=O)OC6)CC[C@]5(O)[C@@H]4CC[C@]3(O)C2)[C@H](O)[C@H](O)[C@H]1O [Ouabain],0.016 µM,0.028 µM,0.028 µM,0.016 µM,,
CC(C)COc1ccc(CNC(=O)N(Cc2ccc(F)cc2)C2CCN(C)CC2)cc1 [Pimanavserin],6 µM,,,,,CC50 (HRT-18 cells; [7]): > 10 µM

# Source: patent publication US20250057819A1, “DRUG COMBINATIONS FOR INHIBITING CORONAVIRUS REPLICATION” (priority 2021, published 2025)
